Measured values published in PubChem BioAssay (NCI).
Several values for one entry are separate records, joined by “and”; a condition that tells them apart may be missing. Identical values can stand only once.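 Step 1: Grow cells in 96-well plates. Step 2: Expose to compound for 48 hours at 5 concentrations. Step 3: Interpolate endpoints linearly; if unreached, use highest concentration. Abbreviation: GI50, concentration required for 50% inhibition of growth. The concentration for full growth arrest is given as TGI.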

Columns and labels:
Test in all cases: NCI anticancer screen, dose series, 48 h
MDA-MB-231 breast = tested on: MDA-MB-231 breast
DU-145 prostate = tested on: DU-145 prostate
T-47D breast = tested on: T-47D breast
SNB-78 CNS = tested on: SNB-78 CNS
DLD-1 colon = tested on: DLD-1 colon
KM20L2 colon = tested on: KM20L2 colon
M19-MEL melanoma = tested on: M19-MEL melanoma
DMS 273 small cell lung = tested on: DMS 273 small cell lung
LXFL 529 NSCLC = tested on: LXFL 529 NSCLC
DMS 114 small cell lung = tested on: DMS 114 small cell lung

Cn1cc(-c2ccc3c(c2)ncn3-c2ccc(CC(=O)Nc3cc(C(C)(C)C)on3)cc2)cn1
GI50 (MDA-MB-231 breast): 1.23 µM | TGI (MDA-MB-231 breast): 3.6 µM | GI50 (DU-145 prostate): 1.37 µM | TGI (DU-145 prostate): 9.49 µM | GI50 (T-47D breast): 0.683 µM | TGI (T-47D breast): 25.5 µM

C/C(=N\NC(=S)Nc1ccccc1)c1ccccn1
GI50 (MDA-MB-231 breast): 0.0309 µM | TGI (MDA-MB-231 breast): 2.61 µM | GI50 (DU-145 prostate): 0.746 µM | TGI (DU-145 prostate): 3.03 µM | GI50 (T-47D breast): 0.0168 µM | TGI (T-47D breast): 6.41 µM

COc1ccc(C2=NN(c3ccc(S(N)(=O)=O)cc3)C(c3ccc(Cl)cc3)C2)c(O)c1 (stereo unspecified)
GI50 (MDA-MB-231 breast): 9.89 µM | TGI (MDA-MB-231 breast): 27.4 µM | GI50 (DU-145 prostate): 5.88 µM | TGI (DU-145 prostate): 20.7 µM | GI50 (T-47D breast): 2.4 µM | TGI (T-47D breast): 7.81 µM

COc1ccc(C(=O)Nc2ccccc2C#N)cc1
TGI (SNB-78 CNS): > 100 µM | TGI (DLD-1 colon): > 100 µM | TGI (KM20L2 colon): > 100 µM | TGI (M19-MEL melanoma): > 100 µM | TGI (DMS 273 small cell lung): > 100 µM

C=C(CNCCc1ccc(O)cc1)[C@@H]1CC[C@]2(CO)CC[C@]3(C)[C@H](CC[C@@H]4[C@@]5(C)CCC(NCCO)C(C)(C)[C@@H]5CC[C@]43C)[C@@H]12 (stereo partly specified)
GI50 (MDA-MB-231 breast): 1.33 µM | TGI (MDA-MB-231 breast): 2.74 µM | GI50 (DU-145 prostate): 1.6 µM | TGI (DU-145 prostate): 3.04 µM | GI50 (T-47D breast): 1.79 µM | TGI (T-47D breast): 3.96 µM

O=C(NCCS(=O)(=O)N1C(=O)C2CCCN2C(=O)[C@@H]1Cc1ccccc1)OCc1ccccc1 (stereo partly specified)
TGI (SNB-78 CNS): > 100 µM | TGI (DLD-1 colon): > 100 µM | TGI (KM20L2 colon): > 100 µM | TGI (LXFL 529 NSCLC): > 100 µM | TGI (DMS 114 small cell lung): 89.2 µM

O=[N+]([O-])c1ccc([I+]c2ccccc2)cc1
GI50 (MDA-MB-231 breast): 2.1 µM | TGI (MDA-MB-231 breast): 12.9 µM and 4.9 µM | GI50 (DU-145 prostate): 2.25 µM | TGI (DU-145 prostate): 25 µM and 6.35 µM | GI50 (T-47D breast): 1.3 µM | TGI (T-47D breast): 26 µM and 5.04 µM

CCN1C(=O)N(CC)C2C1NN=c1s/c(=C\c3ccc([N+](=O)[O-])cc3)c(=O)n12 (stereo unspecified)
GI50 (MDA-MB-231 breast): 1.42 µM | TGI (MDA-MB-231 breast): > 44.2 µM | GI50 (DU-145 prostate): 0.424 µM | TGI (DU-145 prostate): > 100 µM | GI50 (T-47D breast): 0.575 µM | TGI (T-47D breast): > 100 µM

Cc1ccc2c(c1)/C(=N\N=C/c1cn(C(C)C)c3ccccc13)C(=O)N2
GI50 (MDA-MB-231 breast): 1.25 µM | TGI (MDA-MB-231 breast): 5.83 µM | GI50 (DU-145 prostate): 8.17 µM | TGI (DU-145 prostate): > 100 µM | GI50 (T-47D breast): 0.953 µM | TGI (T-47D breast): > 100 µM

O=C(O)Cc1ccccc1
GI50 (MDA-MB-231 breast): > 1000 µM | TGI (MDA-MB-231 breast): > 2000 µM | GI50 (DU-145 prostate): > 1000 µM | TGI (DU-145 prostate): > 1000 µM | GI50 (T-47D breast): > 1000 µM | TGI (T-47D breast): > 2000 µM

COC(=O)[C@@]12C3=NO[C@]1(C(=O)OC)C(O[Si](C)(C)C(C)(C)C)C1OC(C)(C)OC1[C@@H]2[C@@H](OCc1ccccc1)CC3 (stereo partly specified)
TGI (DLD-1 colon): > 100 µM | TGI (KM20L2 colon): > 100 µM | TGI (LXFL 529 NSCLC): > 100 µM | TGI (M19-MEL melanoma): > 100 µM | TGI (DMS 114 small cell lung): > 100 µM | TGI (DMS 273 small cell lung): > 100 µM

Cc1cc(N(CCC#N)CCC#N)ccc1N=Nc1ccc([N+](=O)[O-])cc1
TGI (SNB-78 CNS): > 100 µM | TGI (KM20L2 colon): > 100 µM | TGI (M19-MEL melanoma): > 100 µM | TGI (DMS 114 small cell lung): 33 µM | TGI (DMS 273 small cell lung): 44.4 µM

c1ccc(CNc2nc(Nc3ccc(-c4nc5ccccc5[nH]4)cc3)c3cn[nH]c3n2)cc1
GI50 (MDA-MB-231 breast): 2.11 µM | TGI (MDA-MB-231 breast): 4.97 µM | GI50 (DU-145 prostate): 3.33 µM | TGI (DU-145 prostate): 12.5 µM | GI50 (T-47D breast): 1.63 µM | TGI (T-47D breast): 5.46 µM

C=C1CCC2C3(C)COC(c4cccc(Cl)c4)OC3CCC2(C)C1/C=C/C1=CCOC1=O (stereo unspecified)
GI50 (MDA-MB-231 breast): 6.84 µM | TGI (MDA-MB-231 breast): > 100 µM | GI50 (DU-145 prostate): > 100 µM | TGI (DU-145 prostate): > 100 µM | GI50 (T-47D breast): 1.83 µM | TGI (T-47D breast): > 100 µM

COc1cc(-c2[nH]ncc2CCCC(=O)Nc2ccccc2[N+](=O)[O-])ccc1O
TGI (DLD-1 colon): > 100 µM | TGI (LXFL 529 NSCLC): > 100 µM | TGI (DMS 114 small cell lung): 93.2 µM | TGI (DMS 273 small cell lung): > 100 µM

CC1(C)CCC(CN2CCN(c3ccc(C(=O)NS(=O)(=O)c4ccc(NCC5CCOCC5)c([N+](=O)[O-])c4)c(Oc4cnc5[nH]ccc5c4)c3)CC2)=C(c2ccc(Cl)cc2)C1
GI50 (MDA-MB-231 breast): 1.78 µM | TGI (MDA-MB-231 breast): 4 µM | GI50 (DU-145 prostate): 4.47 µM | TGI (DU-145 prostate): 21.3 µM | GI50 (T-47D breast): 3.25 µM | TGI (T-47D breast): 18.9 µM

CCN(CC)c1ccc(/C=C/C2=[N+](C)c3ccccc3C2(C)C)cc1
GI50 (MDA-MB-231 breast): 0.701 µM | TGI (MDA-MB-231 breast): 6.48 µM | GI50 (DU-145 prostate): 0.492 µM | TGI (DU-145 prostate): 19 µM | GI50 (T-47D breast): 0.205 µM | TGI (T-47D breast): 13.8 µM

CCOC(=O)/C(=C/c1c(-c2ccccc2)[nH]c2ccccc12)C(=O)c1ccc(Cl)cc1
GI50 (MDA-MB-231 breast): 4.74 µM | TGI (MDA-MB-231 breast): > 100 µM | GI50 (DU-145 prostate): 5.87 µM | TGI (DU-145 prostate): > 100 µM | GI50 (T-47D breast): 2.27 µM | TGI (T-47D breast): 8.24 µM

CC/C(=C(/CC)c1ccc(OP(=O)([O-])[O-])cc1)c1ccc(OP(=O)([O-])[O-])cc1.N.N.N.N.[Pt+4].[Pt+4]
GI50 (SNB-78 CNS): 2.3 µM | TGI (SNB-78 CNS): 6.81 µM | GI50 (DLD-1 colon): 9.51 µM | TGI (DLD-1 colon): > 100 µM | GI50 (KM20L2 colon): 26.1 µM | TGI (KM20L2 colon): > 100 µM | GI50 (LXFL 529 NSCLC): 14 µM | TGI (LXFL 529 NSCLC): 31.6 µM | GI50 (DMS 273 small cell lung): 2.17 µM | TGI (DMS 273 small cell lung): 18.9 µM

COC(=O)C1(C)CCc2c(ccc3ccccc23)C1=O (stereo unspecified)
TGI (MDA-MB-231 breast): > 100 µM | TGI (DU-145 prostate): > 100 µM | TGI (T-47D breast): 72.8 µM

OCCC#Cc1ccccc1C#Cc1ccccc1
GI50 (MDA-MB-231 breast): 3.41 µM | TGI (MDA-MB-231 breast): 16.1 µM | GI50 (DU-145 prostate): 12.5 µM | TGI (DU-145 prostate): 26.5 µM | GI50 (T-47D breast): 39.3 µM | TGI (T-47D breast): > 100 µM

COc1ccc(C(NCCNC(c2ccc(OC)c(OC)c2)c2cc3c(cc2O)OCO3)c2cc3c(cc2O)OCO3)cc1OC (stereo unspecified)
TGI (MDA-MB-231 breast): 8.14 µM | TGI (DU-145 prostate): 8.51 µM | TGI (T-47D breast): 13.1 µM

Nc1cc2c3c(cccc3c1)C(=O)N(CCN1CCN(CCN3C(=O)c4cccc5cc(N)cc(c45)C3=O)CC1)C2=O
TGI (KM20L2 colon): > 100 µM | TGI (LXFL 529 NSCLC): > 100 µM | TGI (M19-MEL melanoma): > 100 µM | TGI (DMS 114 small cell lung): > 100 µM | TGI (DMS 273 small cell lung): > 100 µM

CCCCCNC(=O)C1C(=O)N(CCCCC)C(=O)/C1=N\N (stereo unspecified)
TGI (SNB-78 CNS): 60 µM | TGI (DLD-1 colon): > 100 µM | TGI (KM20L2 colon): > 100 µM | TGI (LXFL 529 NSCLC): > 100 µM | TGI (M19-MEL melanoma): > 100 µM

CC1(C)OCC(C2OC(On3nnc4ccc(Cl)cc43)C3OC(C)(C)OC23)O1 (stereo unspecified)
TGI (MDA-MB-231 breast): > 100 µM | TGI (DU-145 prostate): > 100 µM | TGI (T-47D breast): > 100 µM

COC12c3ccccc3-c3ccccc3C1[C@@H](C(=O)O)[C@H]2C(=O)O (stereo partly specified)
TGI (MDA-MB-231 breast): > 10 µM | TGI (DU-145 prostate): > 10 µM | TGI (T-47D breast): > 10 µM

Nc1nccc(C#Cc2cncnc2Nc2ccc(OCc3cccc(F)c3)c(Cl)c2)n1
GI50 (MDA-MB-231 breast): 5.56 µM | TGI (MDA-MB-231 breast): 13.1 µM | GI50 (DU-145 prostate): 4.37 µM | TGI (DU-145 prostate): 7.81 µM | GI50 (T-47D breast): 3.1 µM | TGI (T-47D breast): 8.03 µM

COc1cc2c(cc1OCCCN1CCN(CCCOc3cc4c(cc3OC)C(=O)C3CCC[C@H]3C=N4)CC1)N=C[C@@H]1CCCC1C2=O (stereo partly specified)
GI50 (MDA-MB-231 breast): 8.44 µM | TGI (MDA-MB-231 breast): > 26.6 µM | GI50 (DU-145 prostate): 2.41 µM | TGI (DU-145 prostate): > 100 µM | GI50 (T-47D breast): 15 µM | TGI (T-47D breast): > 100 µM

O=S(=O)(Nc1ccc2ccc3cccc4ccc1c2c34)c1ccccc1
TGI (MDA-MB-231 breast): > 100 µM | TGI (DU-145 prostate): > 100 µM | TGI (T-47D breast): > 100 µM
